# From PMC11353420, “Anti-Inflammatory, Cytotoxic, and Genotoxic Effects of Soybean Oligopeptides Conjugated with Mannose” (Foods, 2024)
# Columns and labels:
# iNOS = iNOS protein level by immunoblotting in LPS-treated RAW 264.7; assay type: cell-based, murine; details: 100, 200, 400 µg/mL, LPS 1 µg/mL 24 h
# Protocol: RAW 264.7 macrophage cells were pretreated with various concentrations of the oligopeptide and its conjugated forms (100, 200, 400 µg/mL) for an hour and then incubated with LPS (1 µg/mL) for a further 24 h (at 37 °C in a 5% CO2 humidified atmosphere). The cells were then collected to investigate the iNOS and COX-2 protein levels. Cell lysate was prepared to obtain the protein samples. The samples were subjected to 10% sodium dodecyl sulfate polyacrylamide gel electrophoresis (SDS-PAGE). The separated proteins were electrically transferred to a nitrocellulose membrane. The target proteins were probed with specific antibodies, including anti-COX-2 antibody (Cell signaling, Danvers, MA, USA), anti-iNOS antibody (Merck, Rahway, NJ, USA), and anti-β-actin antibody (Sigma, St. Louis, MO, USA). Protein detection was performed using a chemiluminescence reagent (Bio-Rad Laboratories, Watford, UK).
# [1] = system: LX-2 (Human hepatic stellate cell line); assay: SRB cytotoxicity assay, LX-2; assay type: cell-based
# Excerpt: (§1) HEK293 (Human embryonic kidney cell line), HepG2 (Human liver carcinoma cell line), LX-2 (Human hepatic stellate cell line), and 3T3-L1 (Murine preadipocyte cell line) cells were obtained from the American Type Culture Collection (ATCC), Bethesda, MD, USA.
# [2] = SRB cytotoxicity assay, LX-2; assay type: cell-based, human; details: human, LX-2 cells; LX-2, 48 h, SRB
# Excerpt: as §1
# [3] = system: HEK293 (Human embryonic kidney cell line); assay: SRB cytotoxicity assay, HEK293; assay type: cell-based
# Excerpt: as §1
# [4] = SRB cytotoxicity assay, HEK293; assay type: cell-based, human; details: human, HEK293 cells; HEK293, 48 h, SRB
# Excerpt: as §1
# RAW 264.7 cells = assay: Cell viability (SRB) of RAW 264.7 in the presence of LPS; assay type: cell-based, murine; details: up to 400 µg/mL, LPS 1 µg/mL, 24 h
# IL-6 = IL-6 secretion by ELISA in LPS-treated RAW 264.7; assay type: cell-based, murine; details: 100, 200, 400 µg/mL, LPS 1 µg/mL 24 h
# Protocol: RAW 264.7 macrophage cells were pretreated with various concentrations of the oligopeptide and its conjugated forms (100, 200, 400 µg/mL) for an hour and then incubated with LPS (1 µg/mL) for further 24 h at 37 °C in a 5% CO2 humidified atmosphere. Then, a sandwich Enzyme Link Immuno-Sorbent Assay was carried out in accordance with the manufacturer’s protocols (BioLegend ELISA MAXTM Deluxe Set, San Diego, CA, USA) to measure TNF-α or IL-6 protein levels in the condition medium.
# [5] = SRB cytotoxicity assay, 3T3-L1 mature adipocytes; assay type: cell-based, murine; details: mouse; 3T3-L1 Mature-adipocytes, 48 h, SRB
# Protocol: (§2) The pre-adipocyte 3T3-L1 cell line was differentiated to become mature adipocytes by culturing the cells to 100% confluence in 10% calf serum DMEM (CS medium), as Day 0 in a 96 well-plate. After post-confluence, the cells were incubated with the induction medium as a differentiation initiation medium (DMEM […] 1 μM DEX, 0.5 mM IBMX, 167 nM insulin, and 10% FBS) for 3 days (Days 1–3). After that, cells were cultured in a differentiation medium as an adipogenic differentiation medium (differentiation media: DMEM containing 167 nM insulin and 10% FBS) for 3 days (Days 4–6). Finally, maturation was induced in an induced-lipid accumulation medium (maturation media: DMEM containing 167 nM insulin and 10% FBS) for 6 days (Days 7–12). The mature adipocytes were then used for toxicity testing.
# (§3) The cytotoxicity of the oligopeptide and its conjugated forms on HepG2, HEK293, LX-2, and RAW 264.7 cells, pre- and mature 3T3-L1 adipocytes, and hPBMCs was analyzed by a sulforhodamine (SRB) assay to obtain their non-toxic concentration for further experiments and as screening data for their in vitro safety. The cells were plated for 12 h in 96-well plates and then treated with the oligopeptide and its conjugated sugar at a concentration of 0–1000 µg/mL for 48 h. Dimethyl sulfoxide (DMSO) was used as a vehicle control (the untreated control). At the indicated time, the cells were then fixed and subjected to an SRB assay. The absorbance was measured at 510 nm by spectrophotometry (Gen5, BioTek, Winooski, VT, USA), and the cell viability was calculated as the ratio of the treatment versus untreated control. The data are represented as the mean ± standard deviation of three replicates and are expressed relative to the untreated control. The percentage of cell survival was calculated as follows:% cell survival = (Abs_extract/Abs_control) × 100
# 3T3-L1 Mature-adipocytes = assay: SRB cytotoxicity assay, 3T3-L1 mature adipocytes; assay type: cell-based, murine; details: 48 h
# Protocol: as §2, §3
smiles,measurement,setting,value
"OC[C@H]1OC(O)[C@@H](O)[C@@H](O)[C@@H]1O (stereo partly drawn) [Man, D-mannose]",effect on iNOS protein level,iNOS,did not affect
same,IC50,"[1]; Homo sapiens, LX-2, 48 h, SRB, read-out: IC50",> 1000 µg/mL
same,toxicity to cells,"[1]; LX-2, up to 1000 µg/mL, 48 h",not toxic
same,IC20 at 48 h,[2],> 1000 µg/mL
same,toxicity to cells,"[3]; HEK293, up to 1000 µg/mL, 48 h",not toxic
same,IC50,"[3]; Homo sapiens, HEK293, 48 h, SRB, read-out: IC50",> 1000 µg/mL
same,IC20 at 48 h,[4],> 1000 µg/mL
same,cell viability of RAW 264.7 cells in the presence of LPS,RAW 264.7 cells,did not change
same,effect on level of IL-6,IL-6,did not alter
same,IC20 at 48 h,[5],> 1000 µg/mL
same,IC50,"3T3-L1 Mature-adipocytes; Mus musculus, 3T3-L1 Mature-adipocytes, SRB, read-out: IC50",> 1000 µg/mL
same,toxicity to cells,"3T3-L1 Mature-adipocytes; mature-3T3-L1, up to 1000 µg/mL",not toxic
